Reference: PMC2151243 (British Journal of Cancer, 1998)
Where “and” joins values, the source holds several entries; their conditions need not be identical. Equal entries are not always repeated. Entries after “also recorded” stand apart in the source; their conditions may differ.

How the values were obtained:
[1] = mouse, in vivo; cited from earlier work
[2] = tested on: Sheep antiserum to ZD1694 (S37B14); test: Radioimmunoassay: cross-reaction of S37B14 antiserum; format: binding; conditions: for Cross-reaction of S37B14 antiserum (%): relative amount of ZD1694 and cross-reactant required to inhibit antibody binding of radiolabel by 50%
Excerpt: (§1) British Joumal of Cancer (1998) 77(2), 221-226 ? […] Tomudex is now available for the treat- ment of advanced colorectal cancer in several countries. […] The limit of detection of this assay for plasma was 0.2 g1M when a solid-phase extraction was used. […] Separation of polyglutamated metabo- lites by HPLC was followed by quantitation in fractions using radiochemical analysis (Jackman et al, 1991c; Gibson et al, 1993) or by measuring inhibition of TS (Sikora et al, 1988). […] The dog was chosen as an additional model, because, unlike mice, plasma levels of thymidine are low and this species is much more sensitive to the effects of TS inhibitors than rodents. […] Acetonitrile was from Fisons, Dextran T70 from Pharmacia and all other chemicals from Sigma. Solutions were prepared with deionized water. […] Stock solutions (10 mM) were prepared in 0.15 M sodium bicar- bonate and stored at -20?C. For the mouse studies, the drug was formulated in 0.05 M sodium bicarbonate and the pH was adjusted to 8.5-9.0. Radioimmunoassay The assay diluent was 0.05 M phosphate buffer pH 7.4, containing 1 g 1-' gelatin and 6 g 1-' sodium chloride (PBSG). Initially, all dilutions and dispensing of standards and samples were made with a Dilutrend diluter, but a Multiprobe (Canberra Packard) auto- mated liquid-handling system was later programmed to perform these steps in the assay. […] Samples were assayed at three appropriate dilutions to ensure that the results of at least two dilutions fell on the linear portion of the stan- dard curve, and samples were reassayed at different dilutions if necessary. The antiserum was diluted in PBSG so that approxi- mately 40% of total radioactivity was bound (Bo) to antibody. This dilution was previously determined from an antiserum dilution curve and was 1:300 to 1:500 depending on the batch of radiolabel used. […] Diluted standards and samples (0.1 ml) were added in duplicate to numbered LP3 tubes (Luckham) or to deep-well blocks (Beckman) with 0.3 ml of assay diluent, 0.1 ml of diluted anti- serum and 0.1 ml of diluted label, mixed and left to stand in iced water for 1 h. Each assay included total counts and non-specific- binding tubes, containing only the radiolabel and buffer, and zero- standard-binding tubes (Bo), which contained only radiolabel and antiserum. The antibody-bound radiolabel was separated from unbound radiolabel by the addition of ice-cold dextran-coated charcoal [2.5% (w/v) activated charcoal (Sigma) coated with 0.25% (w/v) Dextran T-70 (Pharmacia)] to all but the total-counts tubes for 10 min. After centrifugation at 1000 g for 10 min at 4?C, 0.5 ml aliquots of supematant were taken from each assay tube for scintillation counting in 4.0 ml of Ultima gold scintillant (Canberra-Packard). […] The radioimmunoassays were carried out at the Institute of Cancer Research. […] The limit of detection for 6-8 x 10^6 cells is 0.05 µM intracellular concentration. […] Plasma was immediately separated from the; approximately blood by microcentrifugation and stored at -20?C until assayed. Liver and kidney samples were immediately frozen on solid carbon dioxide. Gut epithelium samples were obtained 1 day after drug treatment.

[3] = target: Thymidylate synthase (TS; EC 2.1.1.45), mouse enzyme; conditions: ref Jackman et al, 1991a, Gibson et al, 1993, read-out: Kj for mouse enzyme; cited from earlier work
[4] = parameters: method as in Aherme et al, 1996b; conditions: ref Aherme et al, 1996b; cited from earlier work
[5] = Mouse pharmacokinetic studies: plasma and tissue levels by radioimmunoassay; format: in vivo, female DBA2 mice; conditions: female, plasma, ip
Excerpt: as §1

[6] = parameters: method as in Judson et al, 1996; conditions: man, ref Judson et al, 1996, cited from earlier work
L1210 cells = tested on: L1210 cells; parameters: method as in Jackman et al, 1995c; conditions: L1210, 0.1 µM, 24 h; ref Jackman et al, 1995c; cited from earlier work
[7] = parameters: method as in Jackman et al, 1995a; conditions: mice, ref Jackman et al, 1995a, cited from earlier work
[8] = Pharmacokinetic studies in dogs: plasma and tissue levels by radioimmunoassay; format: in vivo, Alderley Park Beagle dogs
Excerpt: British Joumal of Cancer (1998) 77(2), 221-226 ? […] Tomudex is now available for the treat- ment of advanced colorectal cancer in several countries. […] The limit of detection of this assay for plasma was 0.2 g1M when a solid-phase extraction was used. […] Separation of polyglutamated metabo- lites by HPLC was followed by quantitation in fractions using radiochemical analysis (Jackman et al, 1991c; Gibson et al, 1993) or by measuring inhibition of TS (Sikora et al, 1988). […] The dog was chosen as an additional model, because, unlike mice, plasma levels of thymidine are low and this species is much more sensitive to the effects of TS inhibitors than rodents. […] Acetonitrile was from Fisons, Dextran T70 from Pharmacia and all other chemicals from Sigma. Solutions were prepared with deionized water. […] Stock solutions (10 mM) were prepared in 0.15 M sodium bicar- bonate and stored at -20?C. For the mouse studies, the drug was formulated in 0.05 M sodium bicarbonate and the pH was adjusted to 8.5-9.0. Radioimmunoassay The assay diluent was 0.05 M phosphate buffer pH 7.4, containing 1 g 1-' gelatin and 6 g 1-' sodium chloride (PBSG). […] The antiserum was diluted in PBSG so that approxi- mately 40% of total radioactivity was bound (Bo) to antibody. This dilution was previously determined from an antiserum dilution curve and was 1:300 to 1:500 depending on the batch of radiolabel used. […]

[9] = tested on: L5178Y TK-/- mouse lymphoma; parameters: method as in Jackman et al, 1991b; conditions: single i.p. injection 10 mg kg-1; ref Jackman et al, 1991b; cited from earlier work
[10] = tested on: thymidine salvage competent models; parameters: method as in Jackman et al, 1991a and b; conditions: repeated treatment over 5 days; ref Jackman et al, 1991a and b; cited from earlier work
[11] = parameters: method as in Jodrell et al, 1991; conditions: mice, 100 mg kg-1, HPLC; ref Jodrell et al, 1991; cited from earlier work
L1210:RD1694 cells = tested on: L1210:RD1694 cells; parameters: method as in Jackman et al, 1995c; conditions: resistant line, after 24 h; ref Jackman et al, 1995c; cited from earlier work

## C#CCN(Cc1cc2c(=O)[nH]c(C)nc2cc1C)c1ccc(C(=O)N[C@@H](CCC(=O)N[C@H](CCC(=O)O)C(=O)O)C(=O)O)c(F)c1 [CB30900]
[1]
  liver levels relative to plasma levels: sixfold higher

## Cc1nc2ccc(CN(C)c3ccc(C(=O)NC(CCC(=O)NC(CCC(=O)O)C(=O)O)C(=O)O)s3)cc2c(=O)[nH]1 (stereo not shown) [Diglutamate]
[2]
  Cross-reaction of S37B14 antiserum (%): 90%

## Cc1nc2ccc(CN(C)c3ccc(C(=O)NC(CCC(=O)NC(CCC(=O)NC(CCC(=O)NC(CCC(=O)NC(CCC(=O)NC(CCC(=O)O)C(=O)O)C(=O)O)C(=O)O)C(=O)O)C(=O)O)C(=O)O)s3)cc2c(=O)[nH]1 (stereo not shown) [Hexaglutamate]
[2]
  Cross-reaction of S37B14 antiserum (%): 100%

## Nc1nc2c(c(=O)[nH]1)N(C=O)C(CNc1ccc(C(=O)N[C@@H](CCC(=O)O)C(=O)O)cc1)CN2 (stereo partly shown) [Leucovorin]
[2]
  Cross-reaction of S37B14 antiserum (%): < 0.01%

## CN1c2c(nc(N)[nH]c2=O)NCC1CNc1ccc(C(=O)N[C@@H](CCC(=O)O)C(=O)O)cc1 (stereo partly shown) [Methyl-THFA]
[2]
  Cross-reaction of S37B14 antiserum (%): < 0.01%

## Cc1nc2ccc(CN(C)c3ccc(C(=O)N[C@@H](CCC(=O)N[C@@H](CCC(=O)N[C@@H](CCC(=O)N[C@@H](CCC(=O)N[C@@H](CCC(=O)O)C(=O)O)C(=O)O)C(=O)O)C(=O)O)C(=O)O)s3)cc2c(=O)[nH]1 [Pentaglutamate]
[2]
  Cross-reaction of S37B14 antiserum (%): 110%

## Cc1nc2ccc(CN(C)c3ccc(C(=O)NC(CCC(=O)NC(CCC(=O)NC(CCC(=O)NC(CCC(=O)O)C(=O)O)C(=O)O)C(=O)O)C(=O)O)s3)cc2c(=O)[nH]1 (stereo not shown) [Tetraglutamate]
[3]
  Ki: 1 nM
[2]
  Cross-reaction of S37B14 antiserum (%): 110%

## Cc1nc2ccc(CN(C)c3ccc(C(=O)NC(CCC(=O)NC(CCC(=O)NC(CCC(=O)O)C(=O)O)C(=O)O)C(=O)O)s3)cc2c(=O)[nH]1 (stereo not shown) [Triglutamate]
[2]
  Cross-reaction of S37B14 antiserum (%): 92%

## C#CCN(Cc1cc2c(=O)[nH]c(C)nc2cc1C)c1ccc(C(=O)N[C@@H](CCc2nnn[nH]2)C(=O)O)c(F)c1 [ZD933 1]
[4]
  tissue to plasma ratios: low tissue to plasma ratios

## Cc1nc2ccc(CN(C)c3ccc(C(=O)N[C@@H](CCC(=O)O)C(=O)O)s3)cc2c(=O)[nH]1 [ZD1694, N-[5-[N-(3,4-dihydro-2-methyl-4-oxoquinazolin-6-ylmethyl)-N-methylamino]-2-thenoyl]-L-glutamic acid]
[5]; DBA2, mouse, single i.p. 1 mg kg-1, day 1
  concentration at 1 day: 2.26 ng/mL
[5]; DBA2, mouse, single i.p. 10 mg kg-1, day 1
  concentration at 1 day: 7.18 nM
[5]; DBA2, mouse, single i.p. 100 mg kg-1, day 1
  concentration at 1 day: 30.7 nM
[5]; DBA2, mouse, single i.p. 100 mg kg-1, day 4
  concentration at 4 day: 2.39 nM
[5]; mouse, DBA2 mice, 5 mg kg-1 i.p., non-compartmental model, read-out: plasma elimination phase (half-life) (converted)
  half-life: ~2.7 h
[6]; plasma
  third phase half-life: 257 h
[6]; up to 4 weeks after drug administration
  drug measured in the plasma: 1 to 10 ng/mL
L1210 cells
  intracellular concentration of ZD1694 by radioassay: 3.8 gM
[7]; 24 h after tritiated ZD1694 5 mg kg-1
  radioactivity in the tissues present as polyglutamates: ~80%
[7]; tritiated ZD1694
  polyglutamates in mouse plasma: No polyglutamates were found
[8]; Alderley Park Beagle, dog, plasma, iv, 0.2 mg kg-1 single i.v. bolus, 28 days after administration
  concentration at 28 day: ~0.4 ng/mL and ~0.85 nM
[8]; at 28 days, limit of detection 0.015 nmol g-1
  gastrointestinal tissue drug concentrations: near to the limit of detection; also recorded: at or near the limit of detection
[9]
  anti-tumour effect: curative
[2]; ZD1694 standard curve, read-out: mean dose at 50% inhibition of binding
  IC50: 1.47 nM
[2]
  Cross-reaction of S37B14 antiserum (%): 100%
[10]
  anti-tumour effect: led to anti- tumour activity
[11]
  plasma half-life: ~0.5 h
L1210:RD1694 cells
  level of total drug ZD1694 estimated by radioassay: 0.44 gM
